Data: publication PMC9691367, “The PROTAC selectively degrading Bcl-xL represents a novel Hedgehog pathway inhibitor with capacity of combating resistance to Smoothened inhibitors while sparing bone growth” (Theranostics, 2022)
pIC50: −log10 of the molar value.

Columns and labels:
Bcl-xL/CRBN = biological target: T1, Bcl-xL/CRBN (Homo sapiens, UniProt Q07817+Q96SW2); assay: HTRF assay for ternary complex formation; assay type: binding
T1 construct: purchased Cisbio 63ADK000CB37PEG
Procedure: Bcl-xL/CRBN ternary HTRF assay was used to monitor ternary complex formation between target protein, PROTAC and E3 ligase. Bcl-xL/CRBN PROTAC BINDING ASSAY KITS was purchased from Cisbio (#63ADK000CB37PEG). 200 nL compounds were transferred into 384 assay plate, followed by centrifuging at 1000 RPM. Then 5 µL Bcl-xL and CRBN protein were added into each assay well. After incubation at 25 °C for 15 min, 10 µL Tag2-Eu&Tag1-d2 working solution was added into each assay well and incubated 25 °C for 120 min. The Relative HTRF value was read with BMG (PHERAstar FSX).

[1] = system: SmoA1 (Smo W539L) medulloblastoma tumor; assay: SmoA1 medulloblastoma allograft in nude mice; assay type: in vivo, mouse
Excerpt: For in vivo SmoA1 MB allograft studies, SmoA1 spontaneous MB tumors were obtained from ND2:SmoA1 transgenic mice as previously described. Male nude mice (4 to 5 weeks of age) were purchased from Shanghai Lingchang Biotechnology Co. (Shanghai, China). Spontaneous tumors were harvested and subcutaneously allografted into nude mice. When the tumor volumes reached approximately 2000 mm^3, they were harvested and further subcutaneously allografted into nude mice. When the tumor volumes reached about 150 to 200 mm^3, the tumor-bearing mice were randomly assigned into vehicle and treatment groups. Mice were weighed every 3 days. Tumor size was measured once every 3 days using microcaliper. Tumor volume (V) was determined using the following formula: V = (L×W^2) ×0.5, where L is length, and W is width in mm. Tumor tissues were harvested 6 h after the last dosage to examining Gli1 mRNA expression and protein levels. SIAIS361034 for i.p. administration was formulated in 0.5% sodium carboxymethyl cellulose (CMC-Na). All in vivo studies above were approved by and conformed to the policies and regulations of the Animal Care and Use Committee of Fudan University, China.

Gli1 [2] = assay: Western blot of Gli1 in light II cells; assay type: cell-based; conditions: 1 µM
Procedure: Cells were lysed in cell lysis buffer (50 mM Tris pH 8.0, 150 mM NaCl, 10% glycerol, 1 mM EDTA, 50 mM NaF, and 0.1% NP-40) supplemented with protease and phosphatase inhibitors. Total protein extracts of tissues were generated in radioimmunoprecipitation (RIPA) assay lysis buffer containing complete protease and phosphatase inhibitor cocktail. Protein content was quantified using the Pierce BCA Protein Assay Kit (#23225, Thermo Fisher Scientific). The proteins were separated by SDS-PAGE, electrophoretically transferred to polyvinylidene difluoride (PVDF) blotting membranes (#LC2002, Thermo Fisher Scientific), and subjected to routine immunoblot analysis with primary antibodies as follows: anti-Bcl-2 (#15071), anti-Mcl-1 (#94296), anti-VHL (#68547), anti-CRBN (#71810), and anti-Sufu (#2522) were obtained from Cell Signaling Technology (Danvers, Massachusetts, USA); anti-Bcl-xL (#ab32370), anti-Gli1 (#ab134906), and anti-Smoothened (#ab236465) were obtained from Abcam (Cambridge, CB2 0AX, UK); anti-GAPDH (#60004-1-Ig) and anti-β-tubulin (#10094-1-AP) were purchased from Proteintech Group, Inc. (Rosemont, IL 60018, USA). The results were quantified by densitometry using ImageJ software (NIH).

Wnt signaling pathway = assay: TCF/LEF luciferase reporter assay in LS174T cells; assay type: cell-based; conditions: PGE2 1 μM, 24 h, SIAIS361034 10 μM, H-89 20 μM
Procedure: Cells seeded in 96-well plates were treated with various treatments as indicated. The luciferase activity in the cell lysates was measured using Dual-Luciferase Reporter Assay System (Promega, Madison, WI, USA) according to the manufacturer's instructions in a luminometer (Molecular Devices, Sunnyvale, CA). The firefly luciferase values were normalized to Renilla values. […]
μM) for 6 h. Data represent mean ± SD (n = 3). (C) TCF/LEF luciferase analysis of the effect of SIAIS361034 on Wnt signaling pathway in LS174T cells. The LS174T cellswere transfected with TCF/LEF luciferase reporter and Renilla-TK plasmids and […]
Data represent mean ± SD (n = 3).
(1 picture or pasted object on this page, not shown here)

Gli1 [3] = assay: Immunofluorescence staining of Gli1 in 293T cells transfected with Gli1; assay type: cell-based; conditions: 293T cells transfected with Gli1, 1 µM, 24 h
Procedure: Cells were fixed with 4% paraformaldehyde (PFA) for 15 min, permeabilized with 0.3% Triton X-100 in PBS for 10 min, and blocked with 1% BSA in PBS for 2 h. After that, the cells were further incubated with rabbit anti-Gli1 antibody (#101156-T10, SinoBiological) at 4 °C overnight. Then cells were stained with the Alexa Fluor®594-conjugated Goat Anti-rabbit IgG secondary antibody (red) for 1.5 h. Nuclei were counterstained with DAPI (blue). The immunofluorescent images of cells were captured under a fluorescence microscope (Leica).

[4] = system: Hh pathway (Gli-luciferase) provoked by Gli2; assay: Dual luciferase reporter assay, Hh activity initiated by ectopic Gli2-HA in light II cells; assay type: cell-based
Excerpt: The TCF/LEF luciferase reporter plasmid, NF-κB luciferase reporter plasmid, and TK-Renilla luciferase plasmid were purchased from Promega (Madison, WI, USA). Smo plasmid was purchased from Origene (Rockville, MD, USA). The Smo mutant plasmids were generated from wild type Smo plasmid using QuickChange Site-Directed Mutagenesis kit from Agilent (Santa Clara, CA, USA) and confirmed by sequencing. Information on Smo mutants plasmids is provided in Supplementary data 2. The Gli1 plasmid and Gli2-HA plasmid were obtained from Addgene (Cambridge, MA, USA). Transient transfections were performed by Lipofectamine 2000 reagent from Invitrogen (Grand Island, NY, USA) according to the manufacturer's instructions.
Cells seeded in 96-well plates were treated with various treatments as indicated. The luciferase activity in the cell lysates was measured using Dual-Luciferase Reporter Assay System (Promega, Madison, WI, USA) according to the manufacturer's instructions in a luminometer (Molecular Devices, Sunnyvale, CA). The firefly luciferase values were normalized to Renilla values.

T1 sequence (Q07817 whole entry, species assumed): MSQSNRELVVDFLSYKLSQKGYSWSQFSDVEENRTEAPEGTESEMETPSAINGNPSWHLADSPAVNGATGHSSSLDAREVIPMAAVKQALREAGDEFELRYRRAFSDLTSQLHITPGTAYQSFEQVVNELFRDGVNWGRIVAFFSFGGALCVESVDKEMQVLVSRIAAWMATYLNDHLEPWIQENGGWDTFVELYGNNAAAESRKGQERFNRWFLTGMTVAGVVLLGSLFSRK
T1 sequence (Q96SW2 whole entry, species assumed): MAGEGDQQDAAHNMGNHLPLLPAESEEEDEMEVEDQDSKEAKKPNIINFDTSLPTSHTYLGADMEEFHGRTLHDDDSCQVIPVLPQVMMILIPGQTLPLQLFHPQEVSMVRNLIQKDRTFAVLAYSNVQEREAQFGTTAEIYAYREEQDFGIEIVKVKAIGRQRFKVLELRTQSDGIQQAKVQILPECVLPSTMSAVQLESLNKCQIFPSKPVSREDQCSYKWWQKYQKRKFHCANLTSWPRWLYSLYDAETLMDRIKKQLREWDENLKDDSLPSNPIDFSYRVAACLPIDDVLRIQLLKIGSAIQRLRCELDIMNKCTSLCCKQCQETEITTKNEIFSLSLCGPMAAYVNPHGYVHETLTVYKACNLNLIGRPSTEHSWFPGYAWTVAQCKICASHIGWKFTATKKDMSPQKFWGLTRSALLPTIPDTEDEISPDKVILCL

For `CC1(C)CCC(c2ccc(Cl)cc2)=C(CN2CCN(c3ccc(C(=O)NS(=O)(=O)c4ccc(NCCCN5CCN(CCCC#Cc6cccc7c6CN(C6CCC(=O)NC6=O)C7=O)CC5)c(S(=O)(=O)C(F)(F)F)c4)cc3)CC2)C1` (stereo not shown) [SIAIS361034], the “Ternary complex formation with Bcl-xL and CRBN E3 ligase” value (Bcl-xL/CRBN) was “could form a stable ternary complex”, the “tumor inhibition ratio / mean tumor growth inhibition (TGI) ratio” value ([1]; nude mice, SIAIS361034 50 mg/kg, day 15 (termination of the experiment)) was 93.56% and the “growth of SmoA1 tumors” value ([1]; nude mice, SIAIS361034 50 mg/kg, GDC-0449 50 mg/kg p.o.) was “remarkably suppressed”. The “expression of Gli1 mRNA in tumor tissues” value ([1]; tumors harvested 6 h after the last dosage, RT-qPCR) was “significantly inhibited”, the “Bcl-xL and Gli1 protein in harvested tumors” value ([1]; western blot at the end of the experiment) was “inducing Bcl-xL degradation and repressing Gli1 expression” and the Gli1 protein level (Gli1 [2]) was “decreased Gli1 protein level”. For the same compound, the “TCF/LEF luciferase activity (Wnt signaling) activated by PGE2” value (Wnt signaling pathway) was “failed to repress”, the “translocation of Gli1 from cytoplasm into nucleus” value (Gli1 [3]) was “suppressed translocation of Gli1 from cytoplasm into nucleus” and the “Hh activity evoked by ectopic expression of Gli2” value [4] was “significant potency”. The pIC50 ([4]; ectopic Gli2-HA, 36 h) was 7.07.
